This is an account of results in patent US12441768B2, “Compositions and methods for treating endometriosis” (EndoMet Biosciences, Inc., priority 2018, dated 2025).

Where two headings read alike, the source gives them in different places. *1 amine or outer side, *2 acyl side, *3 side chain or, on linkers, in order; H or OH if unused. Where a SMILES comes first, the peptide text is derived from it. [ ]: non-standard residue; d: D form. ξ: configuration not given here. X4 = CC[C@@H](C)C(N[*:1])C(=O)[*:2]; ξW = NC(Cc1c[nH]c2ccccc12)C(=O)O; ξL = CC(C)CC(N)C(=O)O; ξC = NC(CS)C(=O)O; βAla = NCCC(=O)O

One may read the Kd as the constant that tells how readily two partners part at equilibrium.

This assay deals with T1, β-catenin (Homo sapiens, UniProt P35222).
T1 sequence (P35222 1-781): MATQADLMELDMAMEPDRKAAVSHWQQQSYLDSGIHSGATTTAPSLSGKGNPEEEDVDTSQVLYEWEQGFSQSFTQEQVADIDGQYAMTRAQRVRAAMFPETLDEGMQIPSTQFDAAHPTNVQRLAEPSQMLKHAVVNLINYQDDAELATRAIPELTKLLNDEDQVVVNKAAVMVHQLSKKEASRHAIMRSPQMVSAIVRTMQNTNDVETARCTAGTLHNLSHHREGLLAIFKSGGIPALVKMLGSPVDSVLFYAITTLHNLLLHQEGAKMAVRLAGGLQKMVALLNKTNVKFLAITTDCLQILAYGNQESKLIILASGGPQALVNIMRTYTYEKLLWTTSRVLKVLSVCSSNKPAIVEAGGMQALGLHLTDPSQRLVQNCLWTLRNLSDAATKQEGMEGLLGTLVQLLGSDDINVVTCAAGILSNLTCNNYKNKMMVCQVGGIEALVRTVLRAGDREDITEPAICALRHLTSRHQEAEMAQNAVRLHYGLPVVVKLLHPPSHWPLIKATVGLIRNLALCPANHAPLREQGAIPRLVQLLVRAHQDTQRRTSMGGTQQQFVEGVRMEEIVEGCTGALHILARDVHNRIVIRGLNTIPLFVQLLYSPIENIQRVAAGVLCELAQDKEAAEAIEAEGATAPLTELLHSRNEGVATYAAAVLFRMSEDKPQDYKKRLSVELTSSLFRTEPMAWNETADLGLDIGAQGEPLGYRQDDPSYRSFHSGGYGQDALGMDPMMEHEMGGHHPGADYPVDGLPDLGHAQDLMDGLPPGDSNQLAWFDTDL
Kind of assay: KD50 measurement using competitive fluorescence polarization (FP) with labelled TCF4. In kind it is binding. The following applies: fluorescence polarization, β-catenin. A digest of the protocol:
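Tracer: labelled TCF4, 5 nM; protein 100 nM; RT incubation. Competitor dilution series 10 nM–30 uM. FP read ex 470 / em 520 nm. n = 3.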
(In fluorescence polarisation assays a small probe gives low polarisation when free and higher when bound to something large.)

For the compound `CC[C@H](C)[C@H](NC(=O)[C@H](CO)NC(=O)[C@H](CCC(N)=O)NC(=O)[C@@H]1CCCN1C(=O)[C@H](Cc1c[nH]c2ccccc12)NC(C)=O)C(=O)N[C@@H](CC(C)C)C(=O)N[C@@H](CC(=O)O)C(=O)N[C@H]1CCCCNC(=O)C[C@@H](C(=O)N[C@H](C(=O)N[C@@H](Cc2c[nH]c3ccccc23)C(N)=O)C(C)C)NC(=O)[C@H](CCC(N)=O)NC(=O)[C@H](C2CCCCC2)NC(=O)[C@H](Cc2c[nH]cn2)NC1=O` [compound 462] (HELM PEPTIDE1{[ac].W.P.Q.S.I.L.D.K.H.[O=C([C@@H](N[*:1])C1CCCCC1)[*:2]].Q.D.V.W.[am]}$PEPTIDE1,PEPTIDE1,9:R3-13:R3$$$V2.0), the “β-Cat FP Hill slope” value is listed as 0.76. The Kd (read-out: β-Cat FP KD) is less than 400 nM.

As to `CC[C@H](C)[C@@H]1NC(=O)[C@@H](NC(=O)[C@H](CCC(N)=O)NC(=O)[C@H](C)N(C)C(=O)[C@H](Cc2c[nH]c3ccccc23)NC(C)=O)CCCNC(=O)CC[C@@H](C(=O)N[C@@H](Cc2c[nH]cn2)C(=O)N[C@H](C(=O)N[C@@H](CCC(N)=O)C(=O)N[C@@H](CCCNC(=N)N)C(=O)N[C@H](C(=O)N[C@@H](Cc2c[nH]c3ccccc23)C(=O)NCC(N)=O)C(C)C)C2CCCCC2)NC(=O)[C@H](CC(=O)O)NC(=O)[C@H](CC(C)C)NC1=O` [compound 424] (HELM PEPTIDE1{[ac].W.[meA].Q.[Orn].I.L.D.E.H.[O=C([C@@H](N[*:1])C1CCCCC1)[*:2]].Q.R.V.W.G.[am]}$PEPTIDE1,PEPTIDE1,5:R3-9:R3$$$V2.0), the “β-Cat FP Hill slope” value was determined as 0.7. Besides, where the note is “read-out: β-Cat FP KD”, the dissociation constant Kd is less than 400 nM.

Consider `CC[C@H](C)[C@@H]1NC(=O)[C@H](CO)NC(=O)[C@@H](NC(=O)[C@H](C)N(C)C(=O)[C@H](Cc2c[nH]c3ccccc23)NC(C)=O)CCC(=O)NCCCC[C@@H](C(=O)N[C@@H](CCC(=O)O)C(=O)N[C@@H](Cc2c[nH]cn2)C(=O)N[C@H](C(=O)N[C@@H](CCC(N)=O)C(=O)N[C@@H](CCCNC(=N)N)C(=O)N[C@H](C(=O)N[C@@H](Cc2c[nH]c3ccccc23)C(=O)NCC(N)=O)C(C)C)C(C)C)NC(=O)[C@H](CC(C)C)NC1=O` [compound 450] (HELM PEPTIDE1{[ac].W.[meA].E.S.I.L.K.E.H.V.Q.R.V.W.G.[am]}$PEPTIDE1,PEPTIDE1,4:R3-8:R3$$$V2.0), for which the “β-Cat FP Hill slope” value is listed as 0.79. For the same compound, the Kd (read-out: β-Cat FP KD) was 400 to 1000 nM.

`CC(C)C[C@@H]1NC(=O)[C@H](C2CCCCC2)NC(=O)[C@@H](NC(=O)[C@H](CCC(N)=O)NC(=O)[C@H](C)N(C)C(=O)[C@@H](N)Cc2c[nH]c3ccccc23)CCCCNC(=O)CC[C@@H](C(=O)N[C@@H](Cc2c[nH]cn2)C(=O)N[C@H](C(=O)N[C@@H](CCC(N)=O)C(=O)N[C@@H](CCCNC(=N)N)C(=O)N[C@H](C(=O)N[C@@H](Cc2c[nH]c3ccccc23)C(=O)NCC(N)=O)C(C)C)C(C)C)NC(=O)[C@H](CC(=O)O)NC1=O` [compound 420] (HELM PEPTIDE1{W.[meA].Q.K.[O=C([C@@H](N[*:1])C1CCCCC1)[*:2]].L.D.E.H.V.Q.R.V.W.G.[am]}$PEPTIDE1,PEPTIDE1,4:R3-8:R3$$$V2.0): the “β-Cat FP Hill slope” value is 0.7. The Kd (read-out: β-Cat FP KD) lay in the range of 400 to 1000 nM.

Where the note is “β-Cat FP KD”, `CCCCCCCCCCCCCCCC(=O)N[C@@H](Cc1c[nH]c2ccccc12)C(=O)N(C)[C@@H](C)C(=O)N[C@@H](CCC(N)=O)C(=O)N[C@H]1CCCCNC(=O)C[C@@H](C(=O)N[C@@H](Cc2c[nH]cn2)C(=O)N[C@H](C(=O)N[C@@H](CCC(N)=O)C(=O)N[C@@H](C)C(=O)N[C@H](C(N)=O)C(C)C)C2CCCCC2)NC(=O)[C@H](CC(N)=O)NC(=O)[C@H](CC(C)C)NC(=O)[C@H]([C@@H](C)CC)NC1=O` [compound 454] (HELM PEPTIDE1{[CCCCCCCCCCCCCCCC(=O)[*:2]].W.[meA].Q.K.I.L.N.D.H.[O=C([C@@H](N[*:1])C1CCCCC1)[*:2]].Q.A.V.[am]}$PEPTIDE1,PEPTIDE1,5:R3-9:R3$$$V2.0) came in with a Kd of 1000 to 10000 nM.

Turning to `CC[C@H](C)[C@@H]1NC(=O)[C@@H](NC(=O)[C@H](CCC(N)=O)NC(=O)[C@H](C)N(C)C(=O)[C@H](Cc2c[nH]c3ccccc23)NC(C)=O)CCCCNC(=O)CC[C@@H](C(=O)N[C@@H](Cc2c[nH]cn2)C(=O)N[C@H](C(=O)NC(C)(C)C(=O)N[C@@H](CCCNC(=N)N)C(=O)N[C@H](C(=O)N[C@@H](Cc2c[nH]c3ccccc23)C(=O)NCC(N)=O)C(C)C)C2CCCCC2)NC(=O)[C@H](CC(=O)O)NC(=O)[C@H](CC(C)C)NC1=O` [compound 414] (HELM PEPTIDE1{[ac].W.[meA].Q.K.I.L.D.E.H.[O=C([C@@H](N[*:1])C1CCCCC1)[*:2]].[Aib].R.V.W.G.[am]}$PEPTIDE1,PEPTIDE1,5:R3-9:R3$$$V2.0), the “β-Cat FP Hill slope” value came to 0.7. Moreover, the Kd (read-out: β-Cat FP KD) was less than 400 nM.

Consider `CCCCCCCCCCCC(=O)N[C@@H](Cc1c[nH]c2ccccc12)C(=O)N1CCC[C@H]1C(=O)N[C@@H](CCC(N)=O)C(=O)N[C@@H](CO)C(=O)N[C@H](C(=O)N[C@@H](CC(C)C)C(=O)N[C@@H](CC(=O)O)C(=O)N[C@H]1CCCCNC(=O)C[C@@H](C(=O)N[C@H](C(=O)N[C@@H](Cc2c[nH]c3ccccc23)C(N)=O)C(C)C)NC(=O)[C@H](CCC(N)=O)NC(=O)[C@H](C2CCCCC2)NC(=O)[C@H](Cc2c[nH]cn2)NC1=O)[C@@H](C)CC` [compound 463] (HELM PEPTIDE1{[CCCCCCCCCCCC(=O)[*:2]].W.P.Q.S.I.L.D.K.H.[O=C([C@@H](N[*:1])C1CCCCC1)[*:2]].Q.D.V.W.[am]}$PEPTIDE1,PEPTIDE1,9:R3-13:R3$$$V2.0), for which the Kd (read-out: β-Cat FP KD) is less than 400 nM.

As for `CCCCCCCCCCCCCCCCCC(=O)N[C@@H](Cc1c[nH]c2ccccc12)C(=O)N(C)[C@@H](Cc1c[nH]c2ccccc12)C(=O)N[C@@H](CCC(=O)O)C(=O)NC(C)(CO)C(=O)N[C@H](C(=O)N[C@@H](CC(C)C)C(=O)N[C@@H](CC(=O)O)C(=O)N[C@@H](CCC(=O)O)C(=O)N[C@@H](Cc1c[nH]cn1)C(=O)NC(C)(C(=O)N[C@@H](CCC(N)=O)C(=O)N[C@@H](CCCNC(=N)N)C(=O)N[C@H](C(=O)N[C@@H](Cc1c[nH]c2ccccc12)C(=O)O)C(C)C)C(C)C)[C@@H](C)CC` (single isomer, unassigned) [SEQ ID NO: 393/500, Stearyl-W-NmeW-E-aMeS-ILDEH-aMeV-QRVW-COOH], where the note is “read-out: β-Cat FP KD”, the Kd is more than 30000 nM.

On to `CCCCCCCCCCCC(=O)N[C@@H](Cc1c[nH]c2ccccc12)C(=O)N(C)[C@@H](C)C(=O)N[C@@H](CCC(N)=O)C(=O)N[C@H]1CCCCNC(=O)CC[C@@H](C(=O)N[C@@H](Cc2c[nH]cn2)C(=O)N[C@H](C(=O)N[C@@H](CCC(N)=O)C(=O)N[C@@H](CCCNC(=N)N)C(=O)N[C@H](C(=O)N[C@@H](Cc2c[nH]c3ccccc23)C(N)=O)C(C)C)C2CCCCC2)NC(=O)[C@H](CC(=O)O)NC(=O)[C@H](CC(C)C)NC(=O)[C@H]([C@@H](C)CC)NC1=O` [compound 447] (HELM PEPTIDE1{[CCCCCCCCCCCC(=O)[*:2]].W.[meA].Q.K.I.L.D.E.H.[O=C([C@@H](N[*:1])C1CCCCC1)[*:2]].Q.R.V.W.[am]}$PEPTIDE1,PEPTIDE1,5:R3-9:R3$$$V2.0), for which the equilibrium dissociation constant (Kd) (read-out: β-Cat FP KD) is less than 400 nM.

Take `CC[C@H](C)[C@H](NC(=O)[C@H](CC(C)C)NC(=O)[C@@H](NC(=O)[C@H](Cc1c[nH]c2ccccc12)NC(=O)[C@H](CCSC)N(C)C)[C@@H](C)CC)C(=O)N[C@@H](CO)C(=O)N[C@@H](Cc1ccccc1)C(=O)N[C@@H](Cc1c[nH]c2ccccc12)C(=O)NCC(=O)O` [compound 264] (HELM PEPTIDE1{[CSCC[C@@H](C(=O)[*:2])N(C)C].W.I.L.I.S.F.W.G}$$$$V2.0): the “β-Cat FP Hill slope” value stood at 0.7. Also, the Kd (read-out: β-Cat FP KD) was 1000 to 10000 nM.

Turning to `CC[C@@H](C)C(NC(=O)C(CC(C)C)NC(=O)[C@H](Cc1ccccc1)NC(=O)C(Cc1c[nH]c2ccccc12)NC(=O)[C@H](CCCCN)NC(C)=O)C(=O)NC(CS)C(=O)N[C@@H](C)C(=O)NC(Cc1c[nH]c2ccccc12)C(=O)NCCC(=O)O` (stereo partly shown) [compound 235] (Ac-K[ξW]F[ξL][X4][ξC]A[ξW][βAla]-OH), where the note is “read-out: β-Cat FP KD”, the Kd was more than 30000 nM.

For the compound `CC[C@H](C)[C@@H]1NC(=O)[C@@H](NC(=O)[C@H](CCC(N)=O)NC(=O)[C@H](C)N(C)C(=O)[C@H](Cc2c[nH]c3ccccc23)NC(C)=O)CCCCNC(=O)CC[C@@H](C(=O)N[C@@H](Cc2c[nH]cn2)C(=O)N[C@H](C(=O)N[C@@H](CCC(N)=O)C(=O)N[C@@H](CCCNC(=N)N)C(=O)N[C@H](C(=O)N[C@@H](Cc2c[nH]c3ccccc23)C(N)=O)C(C)C)C2CCCCC2)NC(=O)[C@H](CC(=O)O)NC(=O)[C@H](CC(C)C)NC1=O` [compound 446] (HELM PEPTIDE1{[ac].W.[meA].Q.K.I.L.D.E.H.[O=C([C@@H](N[*:1])C1CCCCC1)[*:2]].Q.R.V.W.[am]}$PEPTIDE1,PEPTIDE1,5:R3-9:R3$$$V2.0), the “β-Cat FP Hill slope” value was 0.7. Also, the dissociation constant (Kd) (read-out: β-Cat FP KD) was less than 400 nM.
